Experimental findings from patent US20150344426A1, “COMPOUNDS AND THERAPEUTIC USES THEREOF” (ALZHEIMER'S INSTITUTE OF AMERICA, INC., priority 2012, published 2015) are described below.

SMILES strings stand for the structures.

The nature of data set [1]: Stability assessment / semi-quantitative hygroscopicity in a relative humidity (RH) chamber. In kind it is physicochemical. Conditions: solid in RH chamber; morphology and parent:prodrug composition. The protocol:
“ND” in Table 2 refers to “No Data”. Purity was determined by HPLC. Melting point was determined by differential scanning calorimetry (“DSC”), and semi-quantitative hygroscopicity was determined in a relative humidity (“RH”) chamber.

Data set [2] is described as follows: Stability in mouse plasma. It is filed as in vitro ADME. Conditions: read-out: Mouse Plasma t1/2. Here is the method: (§1) Relative stability of Example Compound Nos. 1 through 60 in mouse plasma and mouse liver microsomal preparations.
(§2) Certain Example Compounds were each added to a final concentration of 1 μM to 1 mL of each of mouse plasma and mouse liver microsomal preparations (with and without 1 mM NADPH). Stability assays were run in duplicate and were sampled at 0, 5, 15, 30, 60 and 120 minutes as follows: one hundred microliter aliquots of samples were removed at the specified sampling times, and the reaction was quenched with 400 μL of acetonitrile.
(§3) Samples were analyzed by HPLC-ESI-MS/MS by measuring the peak area of both the starting Example Compound and parent compound (i.e., either Parent Compound A or Parent Compound B) that were created by removal of the Prodrug Moiety (as defined in Section 6 herein).

The nature of data set [3]: Stability in mouse liver microsomal preparations. It is filed as in vitro ADME. The conditions noted are these: liver microsomes, with and without 1 mM NADPH (not said which), read-out: Mouse Liver Microsomes t1/2. The protocol:
as §1, §2, §3
(In general: Liver microsomes are vesicles of endoplasmic reticulum, rich in cytochrome P450 enzymes.)

The test system of data set [4] is HT1080 human fibrosarcoma cancer cells. The data set can be described thus: Anti-tumor activity in HT1080 human fibrosarcoma xenograft with twice daily dosing. It is filed as in vivo. Conditions: for anti-tumor activity in the HT1080 xenograft model (summary statement): administered orally, twice daily; for animals euthanized due to tumor volume exceeding 1,500 mm^3 / animals died: Example Compound 42 study, cohort of ten. The protocol:
One million HT1080 cells were implanted subcutaneously in the right flank of female nude mice (Crl:NU-Fox1^nu). When the median tumor volume (MTV) was approximately 209 mm^3, mice were randomized into four cohorts of ten animals. […] All cohorts were dosed twice daily for 7 days. The mice were observed daily for mortality and signs of toxicity. Tumor volumes and body weights were determined from Days 1 to 22. The results are depicted in FIG. 4.
On the technique in general: A xenograft is tissue or cells of one species grown in another, often human tumour cells in immunodeficient mice.

Setting [5] is: Example Compounds 44/45 study, 12 mg/kg twice daily for 7 days, Day 9.

With `O=C(NCc1ccc[n+](COC(=O)c2cccnc2)c1)Nc1ccc(OCCc2ccccc2-c2ccccc2)cc1` [Example 53, 3-{[({4-[2-(Biphenyl-2-yl)ethoxy]phenyl)carbamoyl)amino]methyl}-1-{[(pyridin-3-ylcarbonyl)oxy]methyl}pyridinium], the “Stability at 60° C. and 75% RH” value in data set [1] is recorded as “All prodrug decomposed to parent at 24 h”.
On the same count and under the same terms, the value for `COC(=O)CCC(=O)OC[n+]1cccc(CNC(=O)Nc2ccc(OCCc3ccccc3-c3ccccc3)cc2)c1` [Example 54, 3-{[({4-[2-(Biphenyl-2-yl)ethoxy]phenyl}carbamoyl)amino]methyl}-1-{[(4-methoxy-4-oxobutanoyl)oxy]methyl}pyridinium] was “Deliquesced at 4 days”.
`CC(=O)OC(C)[n+]1cccc(CNC(=O)Nc2ccc(OCCc3ccccc3-c3ccccc3)cc2)c1` (centres unmarked) [Example 37, 1-[1-(Acetyloxy)ethyl]-3-{[({4-[2-(biphenyl-2-yl)ethoxy]phenyl}carbamoyl)amino]methyl}pyridinium]: the half-life at 1 µM in data set [2] was above 5 min. In data set [1], the “Stability at 40° C. and 75% RH” value was “Deliquesced at 2 Hr No change in composition”; the “Stability at 60° C. and 75% RH” value is recorded as “Deliquesced at 2 Hr No change in composition”. Besides, the half-life at 1 µM in data set [3] was found to be 18.7 min.
As to `O=C(NCc1ccc[n+](COC(=O)c2ccccc2O)c1)Nc1ccc(OCCc2ccccc2-c2ccccc2)cc1` [Example 55, 3-{[({4-[2-(Biphenyl-2-yl)ethoxy]phenyl}carbamoyl)amino]methyl}-1-{[(2-hydroxybenzoyl)oxy]methyl}pyridinium], in data set [1], the “Stability at 40° C. and 75% RH” value is recorded as “Deliquesced at 4 h”; the “Stability at 60° C. and 75% RH” value is listed as “Deliquesced at 4 h”.
As to `O=C(NCc1ccc[n+](COC(=O)N2CCOCC2)c1)Nc1ccc(OCCc2ccccc2-c2ccccc2)cc1` [Example 60, 3-{[({4-[2-(Biphenyl-2-yl)ethoxy]phenyl}carbamoyl)amino]methyl}-1-{[(morpholin-4-ylcarbonyl)oxy]methyl}pyridinium], in data set [1], the “Stability at 40° C. and 75% RH” value is recorded as “Deliquesced at 4 h”; the “Stability at 60° C. and 75% RH” value is recorded as “Deliquesced at 4 h”.
`O=C(NCc1ccc[n+](COC(=O)N2CCC[C@H]2CO)c1)Nc1ccc(OCCc2ccccc2-c2ccccc2)cc1` [Example 46, 3-{[({4-[2-(Biphenyl-2-yl)ethoxy]phenyl}carbamoyl)amino]methyl}-1-[({[(2S)-2-(hydroxymethyl)pyrrolidin-1-yl]carbonyl}oxy)methyl]pyridinium]: the results for the half-life at 1 µM in data set [2] and in data set [3] were 87.2 min and 1250 min, respectively.
For the compound `COC(=O)CNC(=O)OC[n+]1cccc(CNC(=O)Nc2ccc(OCCc3ccccc3-c3ccccc3)cc2)c1` [Example 48, Methyl N-{[(3-{[({4-[2-(biphenyl-2-yl)ethoxy]phenyl}carbamoyl)amino]methyl}pyridinium-1-yl)methoxy]carbonyl}glycinate], in data set [1], the “Stability at 40° C. and 75% RH” value is given as “Deliquesced at 2 hr No decomposition observed”; the “Stability at 60° C. and 75% RH” value was “Deliquesced at 2 hr No decomposition observed”.
On to `COC(=O)CN(C)C(=O)OC[n+]1cccc(CNC(=O)Nc2ccc(OCCc3ccccc3-c3ccccc3)cc2)c1` [Example 50, Methyl N-{[(3-{[({4-[2-(biphenyl-2-yl)ethoxy]phenyl}carbamoyl)amino]methyl}pyridinium-1-yl)methoxy]carbonyl}-N-methylglycinate], for which, in data set [1], the “Stability at 40° C. and 75% RH” value was “No change in morphology at 14 days, only prodrug observed”; the “Stability at 60° C. and 75% RH” value was “Oiled out at 2 days No decomposition observed”.
Consider `CC(C)C(=O)OC(C)[n+]1cccc(CNC(=O)Nc2ccc(OCCc3ccccc3-c3ccccc3)cc2)c1` (centres unmarked) [Example 47, 3-{[({4-[2-(Biphenyl-2-yl)ethoxy]phenyl}carbamoyl)amino]methyl}-1-{1-[(2-methylpropanoyl)oxy]ethyl}pyridinium], for which, in data set [1], the “Stability at 40° C. and 75% RH” value was “No change in morphology at 14 days, only prodrug observed”; the “Stability at 60° C. and 75% RH” value is on record as “Approximately 45:55 parent to prodrug observed after 14 days”.
For the compound `CC(=O)OC[C@@H]1CCCN1C(=O)OC[n+]1cccc(CNC(=O)Nc2ccc(OCCc3ccccc3-c3ccccc3)cc2)c1` [Example 45, 1-{[({(2S)-2-[(Acetyloxy)methyl]pyrrolidin-1-yl}carbonyl)oxy]methyl}-3-{[({4-[2-(biphenyl-2-yl)ethoxy]phenyl}carbamoyl)amino]methyl}pyridinium], the half-life at 1 µM in data set [2] was above 5 min. In data set [4] (setting [5]), this compound had an MTV decrease of 54% and a tumor regression of 54%. The “tumor growth inhibition relative to vehicle” value in data set [4] (Example Compounds 44/45 study, 12 mg/kg twice daily for 7 days, Day 22) amounted to 91%. For the same compound, in data set [4] (Example Compounds 44/45 study, 12 mg/kg twice daily for 7 days, end of the study, Day 22), the MTV increase is 33%. Moreover, the “anti-tumor activity in the HT1080 xenograft model (summary statement)” value in data set [4] (all doses tested) is “significant anti-tumor activity”. For the same compound, in data set [4] (xenograft mice, all doses tested, orally twice daily), the Tolerability entry is listed as “well tolerated”. Further, the half-life at 1 µM in data set [3] was above 5 min.
For `O=C(NCc1ccc[n+](COC(=O)N2CCCC2)c1)Nc1ccc(OCCc2ccccc2-c2ccccc2)cc1` [Example 59, 3-{[({4-[2-(Biphenyl-2-yl)ethoxy]phenyl}carbamoyl)amino]methyl}-1-{[(pyrrolidin-1-ylcarbonyl)oxy]methyl}pyridinium], in data set [1], the “Stability at 60° C. and 75% RH” value is “Deliquesced at 4 h”.
`CC(OC(=O)c1ccccc1)[n+]1cccc(CNC(=O)Nc2ccc(OCCc3ccccc3-c3ccccc3)cc2)c1` (centres unmarked) [Example 42, 1-[1-(Benzoyloxy)ethyl]-3-{[({4-[2-(biphenyl-2-yl)ethoxy]phenyl}carbamoyl)amino]methyl}pyridinium]: the “Stability at 40° C. and 75% RH” value in data set [1] was “No change in morphology at 14 days, only prodrug observed”. The “Stability at 60° C. and 75% RH” value in data set [1] is listed as “Deliquesced at 13 days, approx 40:60 parent to prodrug observed”. The MTV increase in data set [4] (4 mg/kg twice daily for 7 days, Day 8) stood at 131%; in data set [4] (4 mg/kg twice daily for 7 days, end of the study, Day 15) it was 469%; in data set [4] (6 mg/kg twice daily for 7 days, Day 8), 87%; in data set [4] (6 mg/kg twice daily for 7 days, end of the study, Day 15) it was 215%; in data set [4] (8 mg/kg twice daily for 7 days, end of the study, Day 15) it was 449%; in data set [4] (12 mg/kg twice daily for 7 days, end of the study, Day 15), 236%. In addition, the tumor growth inhibition came out at 21% in data set [4] (4 mg/kg twice daily for 7 days, end of dosing, Day 8) and 48% in data set [4] (6 mg/kg twice daily for 7 days, end of dosing, Day 8). For the same compound, the MTV decrease in data set [4] (8 mg/kg twice daily for 7 days, Day 8) was determined as 4%; in data set [4] (12 mg/kg twice daily for 7 days, Day 8), 38%. In addition, the tumor regression in data set [4] (8 mg/kg twice daily for 7 days, end of dosing, Day 8) was 4%; in data set [4] (12 mg/kg twice daily for 7 days, end of dosing, Day 8), 38%. Further, the “animals euthanized due to tumor volume exceeding 1,500 mm^3” value in data set [4] (4 mg/kg) is on record as “three”; in data set [4] (6 mg/kg), “one”; in data set [4] (8 mg/kg), “two”. Also, the animals died result in data set [4] (6 mg/kg), in data set [4] (8 mg/kg) and in data set [4] (12 mg/kg) was “One” in each case. For the same compound, in data set [4] (all doses tested), the “anti-tumor activity in the HT1080 xenograft model (summary statement)” value was “dose-dependent anti-tumor activity”.
Consider `COC(=O)CCNC(=O)OC[n+]1cccc(CNC(=O)Nc2ccc(OCCc3ccccc3-c3ccccc3)cc2)c1` [Example 49, Methyl N-{[(3-{[({4-[2-(biphenyl-2-yl)ethoxy]phenyl}carbamoyl)amino]methyl}pyridinium-1-yl)methoxy]carbonyl}-beta-alaninate], for which, in data set [1], the “Stability at 40° C. and 75% RH” value is “Deliquesced at 24 hrs No decomposition observed”; the “Stability at 60° C. and 75% RH” value is listed as “Deliquesced at 7 days”.
